The values that follow come from patent publication US20110039785A1, “POLYPEPTIDE-NUCLEIC ACID CONJUGATES AND USES THEREOF” (Angiochem Inc., priority 2007, published 2011).

In one series the test system is BBB. Put plainly: in situ brain perfusion in mice. It counts as in vivo. The note with it: 125 nM radiolabeled conjugate; uptake into the brain; FIG. 20. The procedure: Transport of the conjugates was measured in vivo using in situ brain perfusion in mice. […] The amount present in the brain parenchyma was determined following brain capillary depletion (FIG. 6).
In situ perfusions using 125 nM of the cleavable and non-cleavable conjugates were performed, and uptake into the brain was measured. Inulin was used as a control. […] Kin values were measured for each protein: The cleavable conjugated has a Kin value of 1.1×10^−4 ml/s/g, the non-cleavable has a Kin value of 4.7×10^−5 ml/s/g, and inulin has a Kin value of 2.1×10^−5 ml/s/g.
Partition into brain compartments of the siRNA following capillary depletion was also measured. This perfusion was also performed at 125 nM.
In situ perfusions were also performed using fluorescent siRNA.

For series [1], the system named is liver, lung, kidney, spleen, and muscle cells. The settings on record: cited from earlier work.

As to inulin, the Kin with BBB turned out to be 2.1e-05 mL/s/g.

For “T F F Y G G S R G R R N N F R T E E Y (TFFYGGSRGRRNNFRTEEY) [AngioPep-7]”, the “transport into cells of tissues” value in series [1] was “efficiently transported into liver, lung, kidney, spleen, and muscle cells”.
